# Measurements published in patent US20090233999A1, “COMPOSITIONS AND THERAPEUTIC METHODS INVOLVING ISOFLAVONES AND ANALOGUES THEREOF” (NOVOGEN RESEARCH PTY LTD, priority 1999, published 2009).
# How the values were obtained:
# ER beta receptor = biological target: T1, ER beta receptor (Homo sapiens, UniProt Q92731); assay: Estrogen Receptor Beta Competitor Assay Core HTS Kit (Panvera); settings: competitive binding; kind of quantity not given; read-out: binding affinity, ER beta receptor
# T1 construct: purchased Panvera Corporation P2614/2615
# T1 sequence (Q92731 whole entry): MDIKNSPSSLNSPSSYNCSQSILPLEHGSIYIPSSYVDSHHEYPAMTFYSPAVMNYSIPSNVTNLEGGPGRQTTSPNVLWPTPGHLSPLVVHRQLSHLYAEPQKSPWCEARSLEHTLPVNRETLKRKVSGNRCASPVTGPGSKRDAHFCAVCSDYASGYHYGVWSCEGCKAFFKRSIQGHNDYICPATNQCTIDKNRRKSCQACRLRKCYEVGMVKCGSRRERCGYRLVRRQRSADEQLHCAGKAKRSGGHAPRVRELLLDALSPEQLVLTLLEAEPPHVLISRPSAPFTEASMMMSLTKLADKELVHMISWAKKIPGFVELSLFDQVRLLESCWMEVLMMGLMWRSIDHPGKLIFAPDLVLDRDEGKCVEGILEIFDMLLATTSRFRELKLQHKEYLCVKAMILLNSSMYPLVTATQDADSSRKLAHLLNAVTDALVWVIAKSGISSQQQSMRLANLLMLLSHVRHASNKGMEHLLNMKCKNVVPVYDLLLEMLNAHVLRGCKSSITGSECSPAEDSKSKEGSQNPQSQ
# Method: The binding affinity of various compounds of the invention for both subtypes of the estrogen receptor was determined with the “Estrogen Receptor Alpha or Beta Competitor Assay Core HTS Kit” supplied by Panvera Corporation (Product No. P2614/2615).
# [1] = DPPH free radical scavenging
# Method: The antioxidant (free radical trapping) activity of test compounds was assessed using the stable free radical compound 2,2-diphenyl-1-picrylhydrazyl (DPPH). A stock solution of DPPH was prepared at a concentration of 0.1 mM in ethanol and mixed for 10 minutes prior to use. Test compounds at a concentration of 100 μM were reacted with DPPH for 20 minutes, after which time the absorbance at 517 nm was determined and the change in absorbance compared to a reagent blank (DPPH with ethanol alone). A dose response curve was produced for those compounds with free radical scavenging activity (ΔAbs>0.3) at 100 μM. The IC50 value was estimated as the concentration of test compound that caused a 0.6 change in absorbance (with 1.2 absorbance units representing total scavenging of the DPPH radical).
# rat aortic ring = assay: Rat aortic ring assay, contractile response to noradrenaline; settings: 1 μg/ml
# Method: The vasodilatory capacity was examined ex vivo using the rat aortic ring assay.
# Male Sprague-Dawley rats (250±50 g) were euthanased with 80% CO2 and 20% O2. The thoracic aorta was excised and quickly mounted in organ-baths as described. Full concentration-contractile curves were obtained to noradrenaline (0.1 nM-[…]) with and without test compounds delivered at a concentration of 1 μg/ml. Experiments were repeated in n=5 different rings from 5 different animals. Only one compound at any one concentration was tested on any one ring from any one animal. Sigmoidal dose response curves were fitted for the data and the logEC50 and the Ema, calculated (Prism 4, GraphPad Software). The difference in these values between the presence and absence of test compound was calculated using a two-tailed paired t test. The effects of β-oestrodiol and vehicle alone were examined as a positive and negative control respectively.
# [2] = test system: COX (PGE2 and TXB2 synthesis); assay: LPS-induced prostanoid (PGE2, TXB2) synthesis in human monocytes; type: cell-based; settings: LPS 200 ng/mL, 18 hrs, data at 10 μM
# Method: Human peripheral blood monocytes were isolated from buffy coats by lymphoprep gradient separation followed by counter-current centrifugal elutriation. Test compounds were dissolved in DMSO and added to fresh monocytes to achieve concentrations of 0, 10 and 100 μM. After 30 min, lipopolysaccharide (LPS) was added to achieve a final concentration of 200 ng/mL. After incubation for 18 hrs at 37° C. in 5% CO2, supernatants were removed and PGE2 and TXB2 (the stable hydrolysis product of TXA2) production were measured by radioimmunoassay (RIA). ANOVA followed by Newman-Keuls multiple comparisons test was used to examine differences between doses and the control values.
# [3] = test system: BALB/c mice (AA-induced ear swelling); settings: regardless of route of administration; cited from earlier work
Compound,melting point [°C],AA-induced oedema [3],also measured
"O=C1c2cc(Cl)c(O)cc2OCC1c1ccc(O)cc1 (stereo not shown) [6-Chloro-4′,7-dihydroxyisoflavan-4-one]",,,IC50 (ER beta receptor): 32.1 µM
"Cc1c(O)ccc2c1OCC(c1ccc(O)cc1)=C2 [Cpd. 13, 4′,7-Dihydroxy-8-methylisoflav-3-ene]",190 to 193,,"ability to scavenge free radicals ([1]; DPPH): limited activity; EC50 ([1]; DPPH 0.1 mM, 20 minutes, read-out: Free radical scavenging ability EC50): 94 µM; contractile response (logEC50) of the aortic ring to noradrenaline (rat aortic ring): significantly inhibited; strength of the contractile response (Emax) (rat aortic ring): reduced"
"Cc1c(O)ccc2c1OCC(c1ccccc1)=C2 [Cpd. 17, 7-Hydroxy-8-methylisoflav-3-ene]",,,COX inhibitory activity (inhibition of PGE2 and TXA2 production) [2]: significant COX inhibitory activity
"CC(=O)Oc1ccc(-c2coc3cc(OC(C)=O)cc(C)c3c2=O)cc1 [Example 5, 4′,7-Diacetoxy-5-methylisoflavone]",195 to 197,,
"CC(=O)Oc1ccc(C2COc3cc(OC(C)=O)cc(C)c3C2=O)cc1 (stereo not shown) [Example 6, 4′,7-Diacetoxy-5-methylisoflavan-4-one]",143 to 145,,
CC(=O)Oc1ccccc1C(=O)O [aspirin],,did not influence,
CC(C)Cc1ccc(C(C)C(=O)O)cc1 (stereo not shown) [ibuprofen],,did not influence,
COc1ccc2c(c1)c(CC(=O)O)c(C)n2C(=O)c1ccc(Cl)cc1 [indomethacin],,does inhibit,
CN1C(C(=O)Nc2ccccn2)=C(O)c2ccccc2S1(=O)=O [piroxicam],,did not influence,
